These results are taken from US8268877B2, “Microbiocides” (Syngenta Crop Protection, LLC, priority 2009, dated 2012).

The subject of series [1] is Fusarium graminearum, Syn. Gibberella zeae. The series can be described thus: whole plant or invertebrate. Format: in vivo. Particulars: in Triticum aestivum, read-out: inhibition (preventative fungicidal activity).
The next series concerns Pyrenophora teres. The series can be described thus: Action against Pyrenophora teres (net blotch), barley leaf segments, preventive. Format: in vivo. Particulars: foliar, 60 ppm active ingredient, sprayed before inoculation, assessed 4 dpi, read-out: inhibition (preventive fungicidal activity). The procedure:
Barley leaf segments are placed on agar in multiwell plates (24-well format) and sprayed with test solutions (60 ppm active ingredient). After drying, the leaf disks are inoculated with a spore suspension of the fungus. After appropriate incubation the activity of a compound is assessed 4 dpi (days after inoculation) as preventive fungicidal activity.

Another series concerns Fusarium culmorum. The series can be described thus: whole plant or invertebrate. Particulars: in Triticum aestivum, read-out: inhibition (preventative fungicidal activity). Format: in vivo.
The subject of series [2] is Phaeosphaeria nodorum (Septoria nodorum). The series can be described thus: Action against Phaeosphaeria nodorum/wheat/leaf disc preventative (glume blotch). As to conditions: wheat leaf segments, 60 ppm active ingredient, sprayed before inoculation, assessed 4 dpi. The series is classed as in vivo. The procedure: Wheat leaf segments are placed on agar in a multiwell plate (24-well format) and sprayed with test solutions (60 ppm active ingredient). After drying, the leaf disks are inoculated with a spore suspension of the fungus. After appropriate incubation the activity of a compound is assessed 4 dpi (days after inoculation) as preventive fungicidal activity.

For series [3], the system named is Monographella nivalis (Microdochium nivale). The series can be described thus: Action against Monographella nivalis/liquid culture (foot rot cereals). Particulars: liquid culture (PDB), 200 ppm active ingredient, 24° C., photometrically after 4-6 days. The series is classed as cell-based. The procedure:
Conidia of the fungus from cryogenic storage are directly mixed into nutrient broth (PDB potato dextrose broth). After placing a (DMSO) solution of the test compounds (200 ppm active ingredient) into a microtiter plate (96-well format) the nutrient broth containing the fungal spores is added. The test plates are incubated at 24° C. and the inhibition of growth is measured photometrically after 4-6 days.

Another series has as its system Puccinia recondita. The series can be described thus: Action against Puccinia recondita/wheat/leaf disc curative (brown rust). The series is classed as in vivo. As to conditions: wheat leaf segments, 200 ppm active ingredient, applied one day after inoculation, assessed 8 dpi. The text has this:
Wheat leaf segments are placed on agar in multiwell plates (24-well format). The leaf disks are then inoculated with a spore suspension of the fungus. One day after inoculation the test solution is applied (200 ppm active ingredient).

`CON(C(=O)c1cn(C)nc1C(F)F)C(C)Cc1sc2ccc(Cl)cc2c1Cl` (centres unmarked) [Compound 1.001, 3-Difluoromethyl-1-methyl-1H-pyrazole-4-carboxylic acid [2-(3,5-dichlorobenzo[b]thiophen-2-yl)-1-methyl-ethyl]methoxyamide] yielded a melting point of 129 to 131 °C. The inhibition at 60 ppm in series [1] is no less than 80%. In addition, the inhibition at 60 ppm in the series on Pyrenophora teres is no less than 80%. In addition, the inhibition at 60 ppm in the series with Fusarium culmorum is no less than 80%.

Consider `CON(C(=O)c1cn(C)nc1C(F)F)C(C)Cc1sc2cc(Cl)ccc2c1Cl` (centres unmarked) [Compound 1.002], for which, in series [2], the “inhibition (preventive fungicidal activity)” value stood at 80%. This compound also displayed an inhibition of growth in series [3] of 80%.

As to `CON(C(=O)c1cn(C)nc1C(F)F)C(C)Cc1sc2ccc(Br)cc2c1Cl` (centres unmarked) [Compound 1.006], in the series with Puccinia recondita, the “inhibition (curative fungicidal activity)” value stood at 80%. In addition, the “inhibition (preventive fungicidal activity)” value in series [2] is 80%. Further, the inhibition of growth in series [3] is 80%.

On to `CC(Cc1sc2ccc(Cl)cc2c1Cl)N(O)C(=O)c1cn(C)nc1C(F)F` (centres unmarked) [Compound 1.010], for which, in series [3], the inhibition of growth is on record as 80%.

In the case of `COC(c1sc2cc(Cl)ccc2c1Cl)C(C)N(OC)C(=O)c1cn(C)nc1C(F)F` (centres unmarked) [Compound 1.015], the “inhibition (preventive fungicidal activity)” value in series [2] turned out to be 80%. For the same compound, the inhibition of growth in series [3] stood at 80%.

Regarding `COC(c1sc2ccc(Br)cc2c1Cl)C(C)N(OC)C(=O)c1cn(C)nc1C(F)F` (centres unmarked) [Compound 1.016], in series [3], the inhibition of growth is given as 80%.

For the compound `CON(C(=O)c1cn(C)nc1C(F)(F)F)C(C)Cc1sc2cc(Cl)ccc2c1Cl` (centres unmarked) [Compound 2.002], the “inhibition (preventive fungicidal activity)” value in series [2] is recorded as 80%. Moreover, the inhibition of growth in series [3] worked out at 80%.

On to `COC(c1sc2cc(Cl)ccc2c1Cl)C(C)N(OC)C(=O)c1cn(C)nc1C(F)(F)F` (centres unmarked) [Compound 2.015], for which the inhibition of growth in series [3] stood at 80%.

Regarding `CON(C(=O)c1c(C)nn(C)c1F)C(C)Cc1sc2cc(Cl)ccc2c1Cl` (centres unmarked) [Compound 3.002], in series [2], the “inhibition (preventive fungicidal activity)” value stood at 80%.
